Reference: US10294202B2, “Pyrrolidinones as herbicides” (FMC Corporation, priority 2013, dated 2019)

Tests used:
galium = test: Test A postemergence herbicide test; format: in vivo, Galium aparine
Procedure, shortened: (§1)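 Young potted plants in a loam–sand mix, one- to two-leaf stage and 2–10 cm tall, receive the test chemical postemergence and stay in a greenhouse for approximately 10 days. Injury is then judged by eye against untreated plants, scored 0 (none) to 100 (complete control).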

ducksalad = test: Test B flooded paddy test; format: in vivo, Heteranthera limosa; conditions: Flood, scale of 0 to 100 where 0 is no effect and 100 is complete control
Procedure, shortened: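 Visual ratings from 0, meaning no effect, up to 100, meaning complete control, were made by comparison with untreated controls 13 to 15 days after treatment. Test compounds went straight into floodwater standing 3 cm over the soil of pots holding 2-leaf seedlings.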

morningglory = test: Test C pre-/postemergence herbicide test; format: in vivo, Ipomoea coccinea
Procedure, shortened: (§2)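 Test compounds, formulated in a surfactant-containing non-phytotoxic solvent blend, are applied to seeded loam/sand soil (preemergence) and to young plants at the 1- to 4-leaf stage in peat-based medium (postemergence). Plants stay 13 to 15 days under greenhouse conditions, then are scored visually relative to controls, 0 = no effect, 100 = complete control.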

foxtail, giant = test: Test C pre-/postemergence herbicide test; format: in vivo, Setaria faberii
Procedure, shortened: as §2

blackgrass = test: Test A postemergence herbicide test; format: in vivo, Alopecurus myosuroides
Procedure, shortened: as §1

oilseed rape = test: Test C pre-/postemergence herbicide test; format: in vivo, Brassica napus
Procedure, shortened: as §2

ragweed = test: Test A pre-/postemergence herbicide test; format: in vivo, Ambrosia elatior
Procedure, shortened: (§3)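 Planted in loam–sand blend; treated the same day preemergence by directed soil spray, while separately grown plants at one- to two-leaf stage got postemergence spray. Compared visually with untreated controls after approximately 10 days; 100 means complete control.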

barnyardgrass = test: Test C pre-/postemergence herbicide test; format: in vivo, Echinochloa crus-galli
Procedure, shortened: as §2

wheat = test: Test A pre-/postemergence herbicide test; format: in vivo, Triticum aestivum; conditions: Postemergence
Procedure, shortened: as §3

[1] = 125 g ai/ha, visual rating on 0 to 100 scale (0 no effect, 100 complete control), approx. 10 days
[2] = 500 g ai/ha, 0 to 100 scale (0 no effect, 100 complete control)
[3] = Postemergence, 31 g ai/ha, scale 0 to 100 (0 no effect, 100 complete control)
[4] = Postemergence, 62 g ai/ha, scale 0 (no effect) to 100 (complete control)
[5] = Postemergence, 125 g ai/ha, scale 0 to 100 (0 no effect, 100 complete control)
[6] = Postemergence, 250 g ai/ha, scale 0 to 100 (0 no effect, 100 complete control)
[7] = Preemergence, 31 g ai/ha, scale 0 to 100, 0 is no effect and 100 is complete control
[8] = Preemergence, 62 g ai/ha, scale 0 to 100 (0 no effect, 100 complete control)
[9] = Preemergence, 125 g ai/ha, scale 0 to 100 (0 no effect, 100 complete control)
[10] = Postemergence, 125 g ai/ha, visual rating on 0 to 100 scale (0 no effect, 100 complete control), approx. 10 days
[11] = Postemergence, 500 g ai/ha, 0 to 100 scale (0 no effect, 100 complete control)
[12] = Preemergence, 125 g ai/ha, 0 to 100 scale where 0 is no effect and 100 is complete control
[13] = Preemergence, 500 g ai/ha, visual rating on 0 to 100 scale (0 no effect, 100 complete control)
[14] = Preemergence, 125 g ai/ha, scale 0 to 100
[15] = Preemergence, 31 g ai/ha, scale 0 to 100
[16] = 125 g ai/ha, 0 to 100 scale, 0 is no effect, 100 is complete control

CN1CC(c2cccc(C(F)(F)F)c2)C(C(=O)Nc2cccc(F)c2F)C1=O (stereo not shown) [Compound 305]
Plant response rating, Galium (galium; [1]): 50
Plant response rating, Galium (galium; [2]): 70
Plant response rating, Ducksalad (ducksalad; 500 g ai/ha): 100
Plant response rating, Morningglory (morningglory; [3]): 25
Plant response rating, Morningglory (morningglory; [4]): 20
Plant response rating, Morningglory (morningglory; [5]): 75
Plant response rating, Morningglory (morningglory; [6]): 20
Morningglory plant response rating (morningglory; [7]): 0
Morningglory plant response rating (morningglory; [8]): 30
Plant response rating, Morningglory (morningglory; [9]): 40
Plant response rating (scale of 0 to 100), Morningglory (morningglory; Preemergence, 250 g ai/ha): 65
Plant response rating, Foxtail, Giant (foxtail, giant; [3]): 0
Plant response rating, Foxtail, Giant (foxtail, giant; [4]): 65
Plant response rating, Foxtail, Giant (foxtail, giant; [5]): 85
Plant response rating, Foxtail, Giant (foxtail, giant; [6]): 90
Foxtail, Giant plant response rating (foxtail, giant; [7]): 95
Foxtail, Giant plant response rating (foxtail, giant; [8]): 95
Plant response rating, Foxtail, Giant (foxtail, giant; [9]): 95
Plant response rating (scale of 0 to 100), Foxtail, Giant (foxtail, giant; Preemergence, 250 g ai/ha): 95
Plant response rating, Blackgrass (blackgrass; [1]): 60
Plant response rating, Blackgrass (blackgrass; [2]): 70
Plant response rating, Oilseed Rape (oilseed rape; [3]): 0
Plant response rating, Oilseed Rape (oilseed rape; [4]): 0
Plant response rating, Oilseed Rape (oilseed rape; [5]): 0
Plant response rating, Oilseed Rape (oilseed rape; [6]): 0
Oilseed Rape plant response rating (oilseed rape; [7]): 20
Oilseed Rape plant response rating (oilseed rape; [8]): 60
Plant response rating, Oilseed Rape (oilseed rape; [9]): 80
Plant response rating (scale of 0 to 100), Oilseed Rape (oilseed rape; Preemergence, 250 g ai/ha): 90
Plant response rating, Ragweed (ragweed; [10]): 0
Plant response rating, Ragweed (ragweed; [11]): 0
Plant response rating, Ragweed (ragweed; [12]): 30
Ragweed plant response rating (ragweed; [13]): 50
Plant response rating, Barnyardgrass (barnyardgrass; [3]): 20
Plant response rating, Barnyardgrass (barnyardgrass; [4]): 55
Plant response rating, Barnyardgrass (barnyardgrass; [5]): 70
Plant response rating, Barnyardgrass (barnyardgrass; [6]): 80
Barnyardgrass plant response rating (barnyardgrass; [7]): 90
Barnyardgrass plant response rating (barnyardgrass; [8]): 95
Plant response rating, Barnyardgrass (barnyardgrass; [9]): 95
Plant response rating (scale of 0 to 100; 0 is no effect, 100 is complete control), Barnyardgrass (barnyardgrass; Preemergence, 250 g ai/ha): 98
Plant response rating, Wheat (wheat; [1]): 60
Plant response rating, Wheat (wheat; [2]): 70

CC(C)c1cccc(C2CNC(=O)C2C(=O)Nc2cccc(F)c2F)c1 (stereo not shown) [Compound 319]
Plant response rating, Galium (galium; [1]): 30
Plant response rating, Galium (galium; [2]): 50
Plant response rating, Ducksalad (ducksalad; 500 g ai/ha): 100
Morningglory plant response rating (morningglory; [7]): 55
Morningglory plant response rating (morningglory; [8]): 40
Plant response rating, Morningglory (morningglory; [14]): 45
Plant response rating (scale of 0 to 100), Morningglory (morningglory; Preemergence, 250 g ai/ha): 40
Foxtail, Giant plant response rating (foxtail, giant; [7]): 70
Foxtail, Giant plant response rating (foxtail, giant; [8]): 85
Plant response rating, Foxtail, Giant (foxtail, giant; [14]): 95
Plant response rating (scale of 0 to 100), Foxtail, Giant (foxtail, giant; Preemergence, 250 g ai/ha): 95
Plant response rating, Blackgrass (blackgrass; [1]): 40
Plant response rating, Blackgrass (blackgrass; [2]): 50
Oilseed Rape plant response rating (oilseed rape; [7]): 0
Oilseed Rape plant response rating (oilseed rape; [8]): 5
Plant response rating, Oilseed Rape (oilseed rape; [14]): 60
Plant response rating (scale of 0 to 100), Oilseed Rape (oilseed rape; Preemergence, 250 g ai/ha): 65
Plant response rating, Ragweed (ragweed; [10]): 20
Plant response rating, Ragweed (ragweed; [11]): 40
Plant response rating, Ragweed (ragweed; [12]): 30
Ragweed plant response rating (ragweed; [13]): 40
Barnyardgrass plant response rating (barnyardgrass; [7]): 90
Barnyardgrass plant response rating (barnyardgrass; [8]): 95
Plant response rating, Barnyardgrass (barnyardgrass; [9]): 95
Plant response rating (scale of 0 to 100; 0 is no effect, 100 is complete control), Barnyardgrass (barnyardgrass; Preemergence, 250 g ai/ha): 98
Plant response rating, Wheat (wheat; [1]): 20
Plant response rating, Wheat (wheat; [2]): 50

O=C1NCC(c2cccc(C(F)(F)F)c2)C1C(=O)Nc1ccc(F)c(F)c1F (stereo not shown) [Compound 345]
Plant response rating, Galium (galium; [1]): 60
Plant response rating, Ducksalad (ducksalad; 1000 g ai/ha): 30
Morningglory plant response rating (morningglory; [7]): 25
Morningglory plant response rating (morningglory; [8]): 0
Plant response rating, Morningglory (morningglory; [14]): 0
Plant response rating (scale of 0 to 100), Morningglory (morningglory; Preemergence, 250 g ai/ha): 35
Foxtail, Giant plant response rating (foxtail, giant; [7]): 85
Foxtail, Giant plant response rating (foxtail, giant; [8]): 90
Plant response rating, Foxtail, Giant (foxtail, giant; [14]): 95
Plant response rating (scale of 0 to 100), Foxtail, Giant (foxtail, giant; Preemergence, 250 g ai/ha): 98
Plant response rating, Blackgrass (blackgrass; [1]): 50
Plant response rating, Blackgrass (blackgrass; [2]): 60
Oilseed Rape plant response rating (oilseed rape; [7]): 50
Oilseed Rape plant response rating (oilseed rape; [8]): 55
Plant response rating, Oilseed Rape (oilseed rape; [14]): 85
Plant response rating (scale of 0 to 100), Oilseed Rape (oilseed rape; Preemergence, 250 g ai/ha): 85
Plant response rating, Ragweed (ragweed; [10]): 0
Plant response rating, Ragweed (ragweed; [12]): 0
Ragweed plant response rating (ragweed; [13]): 0
Barnyardgrass plant response rating (barnyardgrass; [7]): 80
Barnyardgrass plant response rating (barnyardgrass; [8]): 95
Plant response rating, Barnyardgrass (barnyardgrass; [9]): 95
Plant response rating (scale of 0 to 100; 0 is no effect, 100 is complete control), Barnyardgrass (barnyardgrass; Preemergence, 250 g ai/ha): 95
Plant response rating, Wheat (wheat; [1]): 50

O=C1NCC(c2ccc(OC(F)F)cc2)C1C(=O)Nc1cccc(F)c1F (racemic) [Compound 350]
Plant response rating, Galium (galium; [1]): 60
Plant response rating, Ducksalad (ducksalad; 500 g ai/ha): 100
Morningglory plant response rating (morningglory; [8]): 100
Plant response rating, Morningglory (morningglory; [14]): 100
Plant response rating (scale of 0 to 100), Morningglory (morningglory; Preemergence, 250 g ai/ha): 100
Plant response rating, Morningglory (morningglory; [15]): 100
Foxtail, Giant plant response rating (foxtail, giant; [8]): 90
Plant response rating, Foxtail, Giant (foxtail, giant; [14]): 90
Plant response rating (scale of 0 to 100), Foxtail, Giant (foxtail, giant; Preemergence, 250 g ai/ha): 90
Plant response rating, Foxtail, Giant (foxtail, giant; [15]): 85
Plant response rating, Blackgrass (blackgrass; [1]): 50
Plant response rating, Blackgrass (blackgrass; [2]): 50
Oilseed Rape plant response rating (oilseed rape; [8]): 70
Plant response rating, Oilseed Rape (oilseed rape; [14]): 80
Plant response rating (scale of 0 to 100), Oilseed Rape (oilseed rape; Preemergence, 250 g ai/ha): 85
Plant response rating, Oilseed Rape (oilseed rape; [15]): 5
Plant response rating, Ragweed (ragweed; [10]): 0
Plant response rating, Ragweed (ragweed; [12]): 30
Ragweed plant response rating (ragweed; [13]): 30
Barnyardgrass plant response rating (barnyardgrass; [8]): 90
Plant response rating, Barnyardgrass (barnyardgrass; [9]): 90
Plant response rating (scale of 0 to 100; 0 is no effect, 100 is complete control), Barnyardgrass (barnyardgrass; Preemergence, 250 g ai/ha): 90
Plant response rating, Barnyardgrass (barnyardgrass; [15]): 75
Plant response rating, Wheat (wheat; [1]): 20

O=C1NCC(c2ccc(C(F)(F)F)cc2)C1C(=O)Nc1ccccc1F (stereo not shown) [Compound 231]
Plant response rating, Galium (galium; [16]): 40
Galium plant response rating (0 to 100 scale, 0 is no effect, 100 is complete control) (galium; 500 g ai/ha): 50
Plant response rating, Ducksalad (ducksalad; 500 g ai/ha): 0
Morningglory plant response rating (morningglory; [7]): 0
Morningglory plant response rating (morningglory; [8]): 0
Plant response rating, Morningglory (morningglory; [9]): 0
Plant response rating (scale of 0 to 100), Morningglory (morningglory; Preemergence, 250 g ai/ha): 20
Foxtail, Giant plant response rating (foxtail, giant; [7]): 90
Foxtail, Giant plant response rating (foxtail, giant; [8]): 90
Plant response rating, Foxtail, Giant (foxtail, giant; [9]): 98
Plant response rating (scale of 0 to 100), Foxtail, Giant (foxtail, giant; Preemergence, 250 g ai/ha): 95
Plant response rating, Blackgrass (blackgrass; [16]): 40
Blackgrass plant response rating (0 to 100 scale, 0 is no effect, 100 is complete control) (blackgrass; 500 g ai/ha): 60
Oilseed Rape plant response rating (oilseed rape; [7]): 0
Oilseed Rape plant response rating (oilseed rape; [8]): 55
Plant response rating, Oilseed Rape (oilseed rape; [9]): 85
Plant response rating (scale of 0 to 100), Oilseed Rape (oilseed rape; Preemergence, 250 g ai/ha): 90
Plant response rating, Ragweed (ragweed; 125 g ai/ha, visual rating, 0 to 100 scale, 0 no effect, 100 complete control, approximately 10 days, preemergence): 70
Plant response rating, Ragweed (ragweed; Postemergence, 125 g ai/ha, 0 to 100 scale, 0 is no effect, 100 is complete control): 20
Ragweed plant response rating (0 to 100 scale, 0 is no effect, 100 is complete control) (ragweed; Postemergence, 500 g ai/ha): 50
Plant response rating, Ragweed (ragweed; preemergence, 500 g ai/ha, 0 to 100 scale, 0 is no effect and 100 is complete control): 90
Barnyardgrass plant response rating (barnyardgrass; [7]): 85
Plant response rating, Barnyardgrass (barnyardgrass; Preemergence, 62 g ai/ha, scale 0 to 100): 90
Plant response rating, Barnyardgrass (barnyardgrass; [9]): 95
Plant response rating (scale of 0 to 100; 0 is no effect, 100 is complete control), Barnyardgrass (barnyardgrass; Preemergence, 250 g ai/ha): 95
Plant response rating, Wheat (wheat; [16]): 20
Wheat plant response rating (0 to 100 scale, 0 is no effect, 100 is complete control) (wheat; 500 g ai/ha): 30
